From US11254670B2 (NUVATION BIO INC., priority 2019, dated 2022)

Tests used:
[1] = biological target: adenosine A1 (human) membrane (Homo sapiens (Human), UniProt P30542); experiment: A1 adenosine receptor radioligand binding assay ([3H] DPCPX); details: radioligand [3H] DPCPX 1 nM, compound 200 nM
Procedure: A second A1 adenosine receptor radioligand binding assay protocol was used. The protocol used adenosine A1 (human) membrane (PerkinElmer ES-010-M400UA) at a concentration of 2.5 μg/well/100 μl and the radioligand [3H] DPCPX (Cat No. PerkinElmer-NET974250UC) at a final concentration of 1 nM. Testing compounds were tested at a final concentration of 200 nM. CGS-15943, the reference compound, was tested in an 8-point 4-fold serial dilution, starting at a top concentration of 1 μM. 1 μl of compounds/high control/low control was transferred to the assay plate according to a plate map, followed by 100 μl of membrane stocks and 100 μl of radioligand, in assay buffer (25 mM HEPES, 5 mM MgCl2, 1 mM CaCl2, 100 mM NaCl, pH 7.4). The plate was sealed and incubated at RT for 1 hour. Unifilter-96 GF/C filter plates (Perkin Elmer Cat #6005174) were soaked with 50 μl of 0.3% PEI per well for at least 0.5 hour at room temperature. When the binding assays were completed, the reaction mixtures were filtered through GF/C plates using Perkin Elmer Filtermate Harvester, and each plate washed 4 times with cold wash buffer (25 mM HEPES, 5 mM MgCl2, 1 mM CaCl2, 100 mM NaCl, pH 7.4). The filter plates were dried for 1 hour at 50 degrees. After drying, the bottom of the filter plate wells was sealed, 50 μl of Perkin Elmer Microscint 20 cocktail was added, and the top of the filter plate was sealed. ^3H trapped on the filter was counted using Perkin Elmer MicroBeta2 Reader. The data were analyzed with GraphPad Prism 5 to obtain binding IC50 values for the reference compound. The “Inhibition [% Control]” was calculated using the equation: % Inh=(1−Background subtracted Assay value/Background subtracted HC value)*100, where HC is high control.

[2] = biological target: adenosine A2a (human) membrane (Homo sapiens (Human), UniProt P29274); experiment: A2A adenosine receptor radioligand binding assay ([3H] CGS-21680); details: radioligand [3H] CGS-21680 6 nM
Chain of adenosine A2a (human) membrane (P29274 whole entry): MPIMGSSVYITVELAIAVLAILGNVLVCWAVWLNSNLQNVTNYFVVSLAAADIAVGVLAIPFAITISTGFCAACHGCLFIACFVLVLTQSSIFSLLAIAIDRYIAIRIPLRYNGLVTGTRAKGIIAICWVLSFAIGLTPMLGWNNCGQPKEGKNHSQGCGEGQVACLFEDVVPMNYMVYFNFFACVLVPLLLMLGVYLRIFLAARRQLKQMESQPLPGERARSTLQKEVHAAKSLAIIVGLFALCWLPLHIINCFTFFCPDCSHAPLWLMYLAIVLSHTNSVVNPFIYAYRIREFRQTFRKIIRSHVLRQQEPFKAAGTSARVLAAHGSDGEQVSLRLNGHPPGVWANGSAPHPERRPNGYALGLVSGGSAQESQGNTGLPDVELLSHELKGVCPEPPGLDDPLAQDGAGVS
Procedure: A second A2A adenosine receptor radioligand binding assay protocol was used. The protocol used adenosine A2a (human) membrane (PerkinElmer RBHA2AM400UA) at a concentration of 5 μg/well/100 μl and the radioligand [3H] CGS-21680 (Cat No. PerkinElmer-NET1021250UC) at a final concentration of 6 nM. Testing compounds were diluted with DMSO to make 8-point 4-fold serial dilution, starting at 0.2 mM. CGS-15943 was the reference compound. 1 μl of compounds/high control/low control was transferred to the assay plate according to a plate map, followed by 100 μl of membrane stocks and 100 μl of radioligand, in assay buffer (50 mM Tris-HCl, 10 mM MgCl2, 1 mM EDTA, pH 7.4). The plate was sealed and incubated at RT for 2 hours. Unifilter-96 GF/C filter plates (Perkin Elmer Cat #6005174) were soaked with 50 μl of 0.3% PEI per well for at least 0.5 hour at room temperature. When the binding assays were completed, the reaction mixtures were filtered through GF/C plates using Perkin Elmer Filtermate Harvester, and each plate washed 4 times with cold wash buffer (50 mM Tris-HCl, 154 mM NaCl, pH 7.4). The filter plates were dried for 1 hour at 50 degrees. After drying, the bottom of the filter plate wells was sealed, 50 μl of Perkin Elmer Microscint 20 cocktail was added, and the top of the filter plate was sealed. ^3H trapped on the filter was counted using Perkin Elmer MicroBeta2 Reader. The data were analyzed with GraphPad Prism 5 to obtain binding IC50 values. The “Inhibition [% Control]” was calculated using the equation: % Inh=(1−Background subtracted Assay value/Background subtracted HC value)*100, where HC is high control.

[3] = biological target: human recombinant adenosine A2A receptor (Homo sapiens (Human), UniProt P29274); experiment: cAMP assay (Assay 2), HEK-293 cells expressing A2A receptor; type: cell-based; details: HEK-293 cells expressing human recombinant adenosine A2A receptor
Chain of human recombinant adenosine A2A receptor (P29274 whole entry): as above
Procedure: (§1) The functional activity of compounds was tested using Assay 2, below, to detect the presence of cAMP. Assay 1 is an alternative assay for this purpose. Activation of G-protein coupled receptors (such as A2A) results in activation of adenylyl cyclase which converts ATP into cAMP which is used as a downstream signaling molecule. Therefore, molecules which act as GPCR (or specifically A2A receptor) antagonists cause a decrease in intracellular cAMP concentration.
(§2) Assay 2 (Table B2): This assay used HEK-293 cells expressing human recombinant adenosine A2A receptor (or, alternatively, A1 receptor) that were grown prior to the test in media without antibiotic. 100 nL of test articles at 100× of final concentration were transferred to assay plate by Echo. Cells were washed twice with 5 mL of PBS and 10 μL of cells were mixed with 5 mL PBS. After aspirating the PBS and adding 1.5 mL versine, cells were incubated at 37° C. for 2-5 min. After centrifugation, 4 mL of medium was added and adjusted cell density to 5,000 cells/well with Stimulation Buffer. 10 μL of cells were aliquoted to the assay plate, centrifuged at 1000 rpm for 1 minute, and incubated for 60 minutes at room temperature. 5 μL 4× Eu-cAMP tracer solution and 5 μL 4× Ulight™-anti-cAMP solution were added to assay plate, followed by centrifugation and 60-minute incubation at room temperature. Plates were read on EnVision.

[4] = biological target: human recombinant adenosine A1 receptor (Homo sapiens (Human), UniProt P30542); experiment: cAMP assay (Assay 2), HEK-293 cells expressing A1 receptor; type: cell-based
Chain of human recombinant adenosine A1 receptor (P30542 whole entry): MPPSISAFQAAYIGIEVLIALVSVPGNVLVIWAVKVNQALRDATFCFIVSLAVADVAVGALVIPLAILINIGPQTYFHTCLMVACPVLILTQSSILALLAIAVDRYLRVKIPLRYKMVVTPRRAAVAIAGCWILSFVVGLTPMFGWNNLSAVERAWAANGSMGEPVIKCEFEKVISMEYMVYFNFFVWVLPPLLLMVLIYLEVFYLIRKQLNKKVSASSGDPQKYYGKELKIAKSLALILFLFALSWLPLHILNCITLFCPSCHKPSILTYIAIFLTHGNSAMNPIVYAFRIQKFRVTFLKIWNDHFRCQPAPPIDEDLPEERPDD
Procedure: as §1, §2

activated human PBMCs = experiment: Human T cell activation assay (TNF-α and IFN-γ ELISA); type: cell-based; details: activated human T cells in vitro, NECA 1 μM or 5 μM
Procedure: Human T Cell Activation Assay: Fresh human blood was diluted with the same volume of PBS and the buffy coat containing peripheral blood mononuclear cells (PBMCs) were prepared and resuspended in culture medium at a density of 2×10^6/mL. 2×10^5 PBMCs (in 100 μL) were plated to each well of a 96-well flat bottom plate. 25 μL of 8× final concentration of 10-fold serial diluted or single concentration compounds was added to indicated wells and incubated for 30 mins in 37° C./5% CO2. 25 μL of 8× final concentration of NECA (1 μM or 5 μM) was added to selected wells and incubated for 30 min in 37° C./5% CO2. Beads included in T cell activation/expansion kit (Miltenyi biotec Cat #130-091-441) at a bead-to-cell ratio of 1:6 in 50 μL were added to all wells with the final concentration of DMSO at 0.1% and final volume at 200 μL. 60 μL of supernatant post 24 hr and 48 hr incubation was collected for TNF-α and IFN-γ concentration evaluation using TNF-α ELISA ready-set-go kit (eBioscience, Cat #88-7346-77) and IFN-γ ELISA ready-set-go kit (eBioscience, Cat #88-7316-77), respectively.

Chain of adenosine A1 (human) membrane (P30542 whole entry): as above

Row | SMILES | inhibition at 0.2 µM [1] | IC50 [2] | IC50 [3] | IC50 [4] | reversal of NECA-mediated suppression of TNF-α secretion (activated human PBMCs; FIG. 1) | reversal of NECA-mediated suppression of IFN-γ secretion (activated human PBMCs; FIG. 2)
1 | Cc1c(C#N)cccc1-c1nc2[nH]ccc(=O)c2cc1-c1ccc2ncccc2c1 [Compound 55, 2-methyl-3-(5-oxo-3-(quinolin-6-yl)-5,8-dihydro-1,8-naphthyridin-2-yl)benzonitrile] | 5% | 179 nM | – | – | – | –
2 | Cc1cc(-c2cc3c(=O)cc[nH]c3nc2-c2cccc(C#N)c2C)cc(Cl)n1 [Compound 3, 3-(3-(2-chloro-6-methylpyridin-4-yl)-5-oxo-5,8-dihydro-1,8-naphthyridin-2-yl)-2-methylbenzonitrile] | 7% | 2600 nM | – | – | – | –
3 | Cn1cc(-c2cc3c(=O)cc[nH]c3nc2-c2ccccc2)cc(Cl)c1=O [Compound 75] | 82% | – | 195 nM | – | – | –
4 | Cc1cc(-c2cc3c(=O)cc[nH]c3nc2-c2ccccc2)cc(Cl)c1NS(C)(=O)=O [Compound 45, N-(2-chloro-6-methyl-4-(5-oxo-2-phenyl-5,8-dihydro-1,8-naphthyridin-3-yl)phenyl)methanesulfonamide] | 34% | – | > 10000 nM | – | – | –
5 | Cn1cc(-c2cc3c(=O)cc[nH]c3nc2-c2ccccc2)ccc1=O [Compound 76] | 92% | – | 156 nM | – | – | –
6 | Cc1cc(-c2cc3c(=O)cc[nH]c3nc2-c2cccc(C#N)c2)cc(Cl)n1 [Compound 6, 3-(3-(2-chloro-6-methylpyridin-4-yl)-5-oxo-5,8-dihydro-1,8-naphthyridin-2-yl)benzonitrile] | 26% | 113 nM | – | – | – | –

Continued by falling IC50 [2], values first:

Row | inhibition at 0.2 µM [1] | IC50 [2] | IC50 [3] | IC50 [4] | SMILES | reversal of NECA-mediated suppression of TNF-α secretion (activated human PBMCs; FIG. 1) | reversal of NECA-mediated suppression of IFN-γ secretion (activated human PBMCs; FIG. 2)
7 | 81% | 49 nM | – | – | N#Cc1cccc(-c2nc3[nH]ccc(=O)c3cc2-c2ccc3[nH]ncc3c2)c1 [Compound 78, 3-(3-(1H-indazol-5-yl)-5-oxo-5,8-dihydro-1,8-naphthyridin-2-yl)benzonitrile] | – | –
8 | 79% | 17 nM | – | – | N#Cc1cccc(-c2nc3[nH]ccc(=O)c3cc2-c2ccc3[nH]cnc3c2)c1 [Compound 80, 3-(3-(1H-benzo[d]imidazol-5-yl)-5-oxo-5,8-dihydro-1,8-naphthyridin-2-yl)benzonitrile] | – | –
9 | 85% | 9.5 nM | – | – | N#Cc1cccc(-c2nc3[nH]ccc(=O)c3cc2-c2ccc3ncsc3c2)c1 [Compound 79, 3-(3-(benzo[d]thiazol-6-yl)-5-oxo-5,8-dihydro-1,8-naphthyridin-2-yl)benzonitrile] | – | –
10 | 61% | 5.4 nM | 213 nM | – | N#Cc1cccc(-c2nc3[nH]ccc(=O)c3cc2-c2ccc3ncccc3c2)c1 [Compound 77, 3-(5-oxo-3-(quinolin-6-yl)-5,8-dihydro-1,8-naphthyridin-2-yl)benzonitrile] | – | –
11 | – | 3.5 nM | 11 nM | 5.8 nM | CC(C)n1cc(-c2cc3c(=O)cc[nH]c3nc2-c2ccccc2)cc(Cl)c1=O [Compound 7, 6-(5-chloro-1-isopropyl-6-oxo-1,6-dihydropyridin-3-yl)-7-phenyl-1,8-naphthyridin-4(1H)-one] | – | –
12 | 98% | 2.6 nM | 33.8 nM | 3.2 nM | CC(C)n1cc(-c2cc3c(=O)cc[nH]c3nc2-c2ccccc2)ccc1=O [Compound 1, 6-(1-isopropyl-6-oxo-1,6-dihydropyridin-3-yl)-7-phenyl-1,8-naphthyridin-4(1H)-one] | reversed NECA-mediated suppression | reversed NECA-mediated suppression
